≈ marks a conversion by molar mass, not a printed value.
Key:
Assay in all cases: microbe, parasite or virus in culture
[1] = test system: S. aureus JE2 vraG transposon mutant (SAUSA300_0648)
Text: (§1) Staphylococcus aureus is intrinsically resistant to the clinically approved cationic antimicrobial peptides polymyxin B (PMB) and colistin ([1], [16]). […] The MIC for PMB was subsequently determined using Etests for the identified mutants.
(§2) The strains used in this study include S. aureus strain JE2 (plasmid-cured derivative of USA300 LAC) and all derivative strains within the Nebraska Transposon Mutant Library (NTML), consisting of 1,920 unique transposon mutants with inactivation of nonessential genes ([15]). The bursa aurealis transposon used to create the collection contains the resistance cassette ermB, which confers resistance to erythromycin ([15]). Additionally we used S. aureus SA113 and two derivatives, SA113 ΔdltA ([9]) and SA113 ΔmprF ([10]). All bacterial strains were cultured at 37°C in tryptic soy broth (TSB) or on tryptic soy agar (TSA), with antimicrobial agents added as indicated. Two methods have been employed to determine MICs to various antimicrobial agents. (i) A 2-fold broth microdilution assay in TSB (100 µl) with an initial inoculum of approximately 5 × 10^5 cells/ml was employed to determine the MICs of polymyxin B sulfate (Sigma), gallidermin (Santa Cruz Biotechnology), nisin (Sigma), bacitracin (Sigma), and LL-37 (Isca Biochemicals). […] The MIC was determined upon incubation at 37°C for 22 h. […]

[2] = test system: S. aureus JE2 vraF transposon mutant (SAUSA300_0647)
Text: as §1, §2

[3] = test system: S. aureus JE2 graR transposon mutant (SAUSA300_0645)
Text: as §1, §2

[4] = test system: S. aureus JE2 (wild type); details: 22 h; for MIC: Staphylococcus aureus, read-out: MIC, WT
Text: as §1, §2

[5] = test system: S. aureus JE2 atpA transposon mutant (SAUSA300_2060)
Text: as §1, §2

**Q.** For `CNC(C)C1CCC(N)C(OC2C(N)CC(N)C(OC3OCC(C)(O)C(NC)C3O)C2O)O1` (stereo not shown) [Gentamicin, gentamicin], which MIC ([1]; Staphylococcus aureus, 22 h, read-out: MIC, vraG) is on record?
**A.** 0.25 µg/mL (≈ 0.523 µM)

**Q.** And the “fold reduction in MIC / increased sensitivity relative to WT” value ([1]; {})?
**A.** 3-6 fold

**Q.** And the MIC ([2]; Staphylococcus aureus, 22 h, read-out: MIC, vraF)?
**A.** 0.38 µg/mL (≈ 0.796 µM)

**Q.** And the “fold reduction in MIC / increased sensitivity relative to WT” value ([2]; {})?
**A.** 3-6 fold

**Q.** What about the MIC ([3]; Staphylococcus aureus, 22 h, read-out: MIC, graR) of the same molecule?
**A.** 0.5 µg/mL (≈ 1.05 µM)

**Q.** And the “fold reduction in MIC / increased sensitivity relative to WT” value ([3]; {})?
**A.** 3-6 fold

**Q.** And the MIC [4]?
**A.** 1.5 µg/mL (≈ 3.14 µM)

**Q.** What about the MIC ([5]; Staphylococcus aureus, 22 h, read-out: MIC, atpA) of the same molecule?
**A.** 0.094 µg/mL (≈ 0.197 µM)

**Q.** And the “fold reduction in MIC / increased sensitivity relative to WT” value ([5]; {})?
**A.** 16 fold

**Q.** How did the MIC [4] turn out when `CC(=O)NC[C@H]1CN(c2ccc(N3CCOCC3)c(F)c2)C(=O)O1` [Linezolid, linezolid] was run?
**A.** 2 µg/mL (≈ 5.93 µM)

**Q.** `Cc1onc(-c2ccccc2)c1C(=O)N[C@@H]1C(=O)N2[C@@H]1SC(C)(C)[C@@H]2C(=O)O` [Oxacillin, oxacillin] was tested. Which MIC [4] did it give?
**A.** 0.5 µg/mL (≈ 1.25 µM)

**Q.** Which “MIC, vraG” value ([1]; conventional antibiotics (Table 3), Etest on TSA, 37°C, 22 h, vraG mutant) does the source give for `CN[C@H](CC(C)C)C(=O)N[C@H]1C(=O)N[C@@H](CC(N)=O)C(=O)N[C@H]2C(=O)N[C@H]3C(=O)N[C@H](C(=O)N[C@H](C(=O)O)c4cc(O)cc(O)c4-c4cc3ccc4O)[C@H](O)c3ccc(c(Cl)c3)Oc3cc2cc(c3O[C@@H]2O[C@H](CO)[C@@H](O)[C@H](O)[C@H]2O[C@H]2C[C@](C)(N)[C@H](O)[C@H](C)O2)Oc2ccc(cc2Cl)[C@H]1O` [Vancomycin, vancomycin] here?
**A.** 1 µg/mL (≈ 0.69 µM)

**Q.** What about the “MIC, vraF” value ([2]; conventional antibiotics (Table 3), Etest on TSA, 37°C, 22 h, vraF mutant) of the same molecule?
**A.** 0.75 µg/mL (≈ 0.518 µM)

**Q.** And the “MIC, graR” value ([3]; conventional antibiotics (Table 3), Etest on TSA, 37°C, 22 h, graR mutant)?
**A.** 1 µg/mL (≈ 0.69 µM)

**Q.** And the “MIC, WT” value ([4]; conventional antibiotics (Table 3), Etest on TSA, 37°C, WT JE2)?
**A.** 1.5 µg/mL (≈ 1.04 µM)

**Q.** And the “MIC, atpA” value ([5]; conventional antibiotics (Table 3), Etest on TSA, 37°C, 22 h, atpA mutant)?
**A.** 1.500 µg/mL (≈ 1.04 µM)

From article PMC5587909, “Inhibition of the ATP Synthase Eliminates the Intrinsic Resistance of Staphylococcus aureus towards Polymyxins” (mBio, 2017)
